This is an account of results in BindingDB's records for doi:10.7270/Q2H70D5W (University of Pittsburgh, 2007).

The structures appear in SMILES notation.

This experiment deals with Gag-Pol polyprotein (Human immunodeficiency virus type 1 group M subtype B (isolate HXB2), UniProt P04585). The experiment is described as follows: concentration-response of HIV-1 RNase H blockers – biochemical, probe assessment, dose response (AID 652). Conditions: pH 8; 23 °C.
As to `COc1ccc(-c2nsc(SCC(=O)Nc3cc(C)on3)n2)cc1` [2-[[3-(4-methoxyphenyl)-1,2,4-thiadiazol-5-yl]sulfanyl]-N-(5-methyl-1,2-oxazol-3-yl)acetamide], half-maximal inhibition (IC50) was put at 3.01 µM.

`Cc1ccccc1NC(=O)CSc1nc2c(c(-c3ccco3)c1C#N)CCCC2` [2-[[3-cyano-4-(2-furanyl)-5,6,7,8-tetrahydroquinolin-2-yl]thio]-N-(2-methylphenyl)acetamide]: the 50% inhibitory concentration (IC50) (in general, the concentration that gives 50% inhibition) was 5.23 µM.

As for `N#Cc1c(SCC(=O)Nc2nccs2)nc2c(c1-c1ccco1)CCCC2` [2-[[3-cyano-4-(2-furanyl)-5,6,7,8-tetrahydroquinolin-2-yl]thio]-N-(2-thiazolyl)acetamide], inhibition was half-maximal at 4.3 µM (IC50).

In turn, `CCOC(=O)CSc1nc2cc(C(=O)NCc3ccco3)ccc2c(=O)n1C1CCCCC1` [2-[[3-cyclohexyl-7-(2-furfurylcarbamoyl)-4-keto-quinazolin-2-yl]thio]acetic acid ethyl ester] came in with a 50% inhibitory concentration (IC50) of 6.07 µM.

Molecule `CCOC(=O)c1c(NC(=O)c2ccc(-n3cnnn3)cc2)sc2c1CCCC2` [2-[[4-(tetrazol-1-yl)benzoyl]amino]-4,5,6,7-tetrahydrobenzothiophene-3-carboxylic acid ethyl ester] had a 50% inhibitory concentration (IC50) of 2.81 µM.

`CC(C)OC(=O)CSc1nnc(-c2ccc(C(C)(C)C)cc2)n1N` [2-[[4-amino-5-(4-tert-butylphenyl)-1,2,4-triazol-3-yl]thio]acetic acid isopropyl ester] had an IC50 of more than 50 µM.

Regarding `Cc1cc(C(=O)CSc2nnc(-c3ccc(OC(F)F)cc3)o2)c(C)n1Cc1cccs1` [2-[[5-[4-(difluoromethoxy)phenyl]-1,3,4-oxadiazol-2-yl]sulfanyl]-1-[2,5-dimethyl-1-(thiophen-2-ylmethyl)pyrrol-3-yl]ethanone], the IC50 stood at 1.88 µM.

The molecule `C=CCNC(=O)c1c(N)n(-c2ccc3c(c2)OCO3)c2nc3ccccc3nc12` [2-amino-1-(1,3-benzodioxol-5-yl)-N-prop-2-enyl-3-pyrrolo[3,2-b]quinoxalinecarboxamide] yielded a half-maximal inhibitory concentration (IC50) of 32.7 µM. This IC50 is about 17-fold higher than that of the molecule before.

Turning to `CCOC(=O)c1c(N)sc2c1CCC1C(=O)N(C3CCCCC3)C(=O)C21` (configuration not stated) [2-amino-7-cyclohexyl-6,8-diketo-4,5,5a,8a-tetrahydrothien[2,3-e]isoindole-3-carboxylic acid ethyl ester], 4.84 µM corresponded to half-maximal inhibition (IC50).

`CSc1ccc(C2c3ccc(=O)c4c(C)oc(C)c4c3OC(=N)C2C#N)cc1` (configuration not stated) [2-amino-7-keto-8,10-dimethyl-4-[4-(methylthio)phenyl]-4H-furo[1,2]cyclohepta[4,6-d]pyran-3-carbonitrile]: 5.81 µM corresponded to half-maximal inhibition (IC50).

`CC(C)CNC(=O)c1c(N)n(N=Cc2ccccn2)c2nc3ccccc3nc12` [2-amino-N-(2-methylpropyl)-1-(2-pyridinylmethylideneamino)-3-pyrrolo[3,2-b]quinoxalinecarboxamide] displayed an IC50 of 9.34 µM.

Molecule `Cc1cc(C)c(C#N)c(=N)o1` [2-azanylidene-4,6-dimethyl-pyran-3-carbonitrile] yielded a half-inhibitory concentration (IC50) of 0.298 µM.

Molecule `Cc1cccc(C(=O)OCC(=O)Nc2ccc(N3CCCCC3)cc2)c1O` [2-hydroxy-3-methyl-benzoic acid [2-keto-2-(4-piperidinoanilino)ethyl] ester] came in with an IC50 of 13.2 µM.

`O=C(O)c1cc(S(=O)(=O)Nc2ccc3oc(=O)sc3c2)ccc1O` [2-hydroxy-5-[(2-keto-1,3-benzoxathiol-5-yl)sulfamoyl]benzoic acid] showed a half-maximal inhibitory concentration (IC50) of 7.39 µM.

For `O=C(c1ccc2c3c(cccc13)C(=O)N(O)C2=O)N1CCCCC1` [2-hydroxy-6-(piperidine-1-carbonyl)benzo[de]isoquinoline-1,3-dione], the half-maximal inhibitory concentration (IC50) worked out at 4.19 µM.

`Cc1cc(-c2nn3c(-c4ccccc4)nnc3s2)c2ccccc2n1` [2-methyl-4-(3-phenyl[1,2,4]triazolo[3,4-b][1,3,4]thiadiazol-6-yl)quinoline]: the midpoint of inhibition, the IC50, lay at 2.6 µM.

On to `O=C(O)/C=C/c1ccc(O)c(O)c1` [3,4-Dihydroxycinnamate, XVII], for which the IC50 was more than 50 µM.

For the molecule `c1ccc(-c2ccc(-c3ccccn3)nn2)nc1` [3,6-bis(2-pyridinyl)pyridazine], the IC50 was determined as 15.4 µM.

With `c1ccc2c(c1)ncn2Cc1nnc2sc(-c3ccc4c(c3)OCO4)nn12` [3-(1-benzimidazolylmethyl)-6-(1,3-benzodioxol-5-yl)-[1,2,4]triazolo[3,4-b][1,3,4]thiadiazole], half-maximal inhibition (IC50) required 1.23 µM.

Molecule `c1ccc(Cc2nn3c(Cn4nnc5ccccc54)nnc3s2)cc1` [3-(1-benzotriazolylmethyl)-6-(phenylmethyl)-[1,2,4]triazolo[3,4-b][1,3,4]thiadiazole] showed a half-inhibitory concentration (IC50) of 1.84 µM.

`c1ccc2c(c1)nnn2Cc1nnc2sc(-c3ccncc3)nn12` [3-(1-benzotriazolylmethyl)-6-pyridin-4-yl-[1,2,4]triazolo[3,4-b][1,3,4]thiadiazole] returned a half-inhibitory concentration (IC50) of 2.1 µM.

On to `c1csc(-c2nn3c(C4COc5ccccc5O4)nnc3s2)c1` (configuration not stated) [3-(2,3-dihydro-1,4-benzodioxin-2-yl)-6-(2-thienyl)[1,2,4]triazolo[3,4-b][1,3,4]thiadiazole], for which the IC50 is 1.21 µM.

In turn, `COc1ccc(N2CSC3=C(C#N)C(c4cc(OC)ccc4OC)CC(=O)N3C2)c(OC)c1` (configuration not stated) [3-(2,4-dimethoxyphenyl)-8-(2,5-dimethoxyphenyl)-6-keto-2,4,7,8-tetrahydropyrido[2,1-b][1,3,5]thiadiazine-9-carbonitrile] had an IC50 of 2.9 µM. This IC50 lies about 2.4-fold higher than the previous one.

Consider `COc1ccc(N2CSC3=C(C#N)C(c4ccc(OC)c(OC)c4)CC(=O)N3C2)c(OC)c1` (configuration not stated) [3-(2,4-dimethoxyphenyl)-8-(3,4-dimethoxyphenyl)-6-oxidanylidene-2,4,7,8-tetrahydropyrido[2,1-b][1,3,5]thiadiazine-9-carbonitrile], for which the IC50 came to 17.8 µM.

`CCOc1ccccc1N1CSC2=C(C#N)C(c3c(OC)ccc4ccccc34)CC(=O)N2C1` (configuration not stated) [3-(2-ethoxyphenyl)-8-(2-methoxy-1-naphthalenyl)-6-oxo-2,4,7,8-tetrahydropyrido[2,1-b][1,3,5]thiadiazine-9-carbonitrile] displayed an IC50 of 2.18 µM.

With `CCc1ccccc1N1CSC2=C(C#N)C(c3cc(OC)c(OC)cc3OC)CC(=O)N2C1` (configuration not stated) [3-(2-ethylphenyl)-6-oxidanylidene-8-(2,4,5-trimethoxyphenyl)-2,4,7,8-tetrahydropyrido[2,1-b][1,3,5]thiadiazine-9-carbonitrile], half-maximal inhibition (IC50) was put at 2.91 µM.

For the molecule `CCc1ccccc1N1CSC2=C(C#N)C(c3ccccc3F)CC(=O)N2C1` (configuration not stated) [3-(2-ethylphenyl)-8-(2-fluorophenyl)-6-keto-2,4,7,8-tetrahydropyrido[2,1-b][1,3,5]thiadiazine-9-carbonitrile], inhibition was half-maximal at 1.22 µM (IC50).

Molecule `CN(C)c1ccc2c(c1)N=C(c1ccco1)OP2(=S)N1CCOCC1` (configuration not stated) [3-(2-furanyl)-N,N-dimethyl-1-(4-morpholinyl)-1-sulfanylidene-2,4,1-benzoxazaphosphorin-6-amine] showed a half-inhibitory concentration (IC50) of 1.66 µM.

`COc1ccccc1N1CSC2=C(C#N)C(c3ccc(SC)cc3)CC(=O)N2C1` (configuration not stated) [3-(2-methoxyphenyl)-8-(4-methylsulfanylphenyl)-6-oxidanylidene-2,4,7,8-tetrahydropyrido[2,1-b][1,3,5]thiadiazine-9-carbonitrile]: the 50% inhibitory concentration (IC50) is 2.59 µM. This IC50 is about 1.6-fold higher than that of the molecule before.

Take `COc1cc(C2CC(=O)N3CN(c4ccccc4C)CSC3=C2C#N)cc(OC)c1OC` (configuration not stated) [3-(2-methylphenyl)-6-oxidanylidene-8-(3,4,5-trimethoxyphenyl)-2,4,7,8-tetrahydropyrido[2,1-b][1,3,5]thiadiazine-9-carbonitrile]: the IC50 is 4.1 µM.

`CC(=O)C(C(C)=O)c1c(Cl)c(O)c(O)c2c(C(=O)c3ccccc3)coc12` [3-(3-benzoyl-6-chloro-4,5-dihydroxy-1-benzofuran-7-yl)pentane-2,4-dione] had an IC50 of 0.384 µM.

As for `CC(C)(C)c1ccc(-c2nnc3sc(-c4ccncc4)nn23)cc1` [3-(4-tert-butylphenyl)-6-(4-pyridinyl)[1,2,4]triazolo[3,4-b][1,3,4]thiadiazole], the IC50 stood at 6.18 µM. This IC50 lies about 16-fold higher than the previous one.

As for `CN(C)c1cccc(C(=O)Nc2cccc(F)c2)c1` [3-(dimethylamino)-N-(3-fluorophenyl)benzamide], the IC50 is 12.2 µM.

On to `c1ccc(Cc2nn3c(COc4ccccc4)nnc3s2)cc1` [3-(phenoxymethyl)-6-(phenylmethyl)-[1,2,4]triazolo[3,4-b][1,3,4]thiadiazole], for which the IC50 is 1.36 µM. Compared with the last molecule, the IC50 is about 9-fold lower.

In the case of `COc1cc(-c2nn3c(Cc4ccccc4)nnc3s2)cc(OC)c1OC` [3-(phenylmethyl)-6-(3,4,5-trimethoxyphenyl)-[1,2,4]triazolo[3,4-b][1,3,4]thiadiazole], the IC50 worked out at 4.78 µM.

The molecule `c1ccc(Cc2nnc3sc(-c4ccncc4)nn23)cc1` [3-(phenylmethyl)-6-pyridin-4-yl-[1,2,4]triazolo[3,4-b][1,3,4]thiadiazole] yielded an IC50 of 1.81 µM.

`Cc1nn(CCC#N)c2c1P(=S)(N1CCCC1)OC(c1ccc(F)cc1)=N2` (configuration not stated) [3-[3-(4-fluorophenyl)-7-methyl-1-(1-pyrrolidinyl)-1-sulfanylidene-5-pyrazolo[4,3-c][1,5,2]oxazaphosphorinyl]propanenitrile] yielded a half-maximal inhibitory concentration (IC50) of 0.879 µM.

With `COc1ccc2nc(O)c(CN(C3CCCCC3)C(c3nnnn3Cc3ccco3)C(C)C)cc2c1` (configuration not stated) [3-[[cyclohexyl-[1-[1-(2-furanylmethyl)-5-tetrazolyl]-2-methylpropyl]amino]methyl]-6-methoxy-1H-quinolin-2-one], the half-inhibitory concentration (IC50) came out at 1.03 µM.

`C=CCn1c(N)c(C(=O)NCCC2=CCCCC2)sc1=S` [3-allyl-4-amino-N-(2-cyclohex-1-en-1-ylethyl)-2-thioxo-2,3-dihydro-1,3-thiazole-5-carboxamide] gave an IC50 of 3.82 µM. This IC50 lies about 3.7-fold higher than the previous one.

`COC(=O)c1oc2ccc(Br)cc2c1NC(=O)c1ccccc1` [3-benzamido-5-bromo-2-benzofurancarboxylic acid methyl ester] had an IC50 of 0.989 µM.

As for `COc1ccc2ccccc2c1C1CC(=O)N2CN(C3CCCCC3)CSC2=C1C#N` (configuration not stated) [3-cyclohexyl-8-(2-methoxynaphthalen-1-yl)-6-oxo-2,4,7,8-tetrahydropyrido[2,1-b][1,3,5]thiadiazine-9-carbonitrile], the IC50 came out at 3.62 µM. This IC50 is about 3.7-fold higher than that of the molecule before.

In turn, `CCOc1cc(C2CC(=O)N3CN(C4CCCCC4)CSC3=C2C#N)ccc1O` (configuration not stated) [3-cyclohexyl-8-(3-ethoxy-4-hydroxy-phenyl)-6-keto-2,4,7,8-tetrahydropyrido[2,1-b][1,3,5]thiadiazine-9-carbonitrile] gave an IC50 of 19.5 µM.
